US6458764B1, “GRF analogs with increased biological potency” (Theratechnologies Inc., priority 1995, dated 2002)

What was measured:
serum IGF-I [1] = test: Repeated S.C. administrations of GRF analogs, serum IGF-I levels in pigs (Example I, Experiments 1-3; radioimmunoassay); format: in vivo, pigs (Landrace x Yorkshire); details: for serum IGF-I, Day 1 (pretreatment): pretreatment baseline; for increase in IGF-I levels: 20 μg/kg BID SC, P<0.05
Method: The objective of these experiments was to assess the potential of the GRF analogs as anabolic agents.
Therefore, in order to investigate the anabolic potency of the fatty acid-GRF analogs, their ability to increase IGF-I levels following repeated S.C. administrations in pig was evaluated.
26 Landrace x Yorkshire castrated male pigs (40-45 kg BW) were randomly distributed into 4 experimental groups:
Each animal was injected BID (twice a day) subcutaneously for 4 consecutive days. One blood sample was collected each morning prior to the first injection of the day, and the day after the last injection, for IGF-I measurement.
40 Landrace x Yorkshire castrated male pigs (40-45 kg BW) were randomly distributed into 5 experimental groups:
(§1) Each animal was injected BID (twice a day) subcutaneously for 5 consecutive days. One blood sample was collected each morning prior to the first injection of the day, and the day after the last injection, for IGF-I measurement.
48 Landrace x Yorkshire castrated male pigs (40-45 kg BW) were randomly distributed into 6 experimental groups:
as §1, with “The selected doses were 30 μg/kg for hGRF(1-44)NH2 analogs and 20 μg/kg for hGRF(1-29)NH2 analogs, which give identical doses on a molar basis. Each” for “Each”, “measurements.” for “measurement.”
IGF-I levels were measured in pig serum by double antibody radioimmunoassay after formic acid-acetone extraction, as previously described (Abribat T. et al., 1993, J. Endocrinol., 39:583-589). The extraction prior to radioimmunoassay is a necessary step to remove endogenous IGF-binding proteins.
In both experiments, the IGF-I data were analyzed by a two way repeated measure analysis of variance, with day and treatment (GRF analog) as sources of variation. Multiple comparison procedures were there run (Student-Newman Keuls method). A P<0.05 was considered as statistically significant.

serum IGF-I [2] = test: Comparative effects of GRF analogs on IGF-I levels in pigs (Example II, D-IGF-I, FIG. 1); format: in vivo, pigs (Landrace x Yorkshire); details: 20 μg/kg 2×/day S.C., days 1 to 5, n=8 pigs per group
Method: This was a 5-day treatment, twice a day S.C. administration of one single dose of each test article vs saline. This experiment was conducted to compare the efficacy of (Aminohexanoyl)0 hGRF (1-29) NH2, (Hexylformiate)0 hGRF (1-29) NH2, (Hexenoyl trans-2)0 hGRF (1-29) NH2, (Hexenoyl trans-3)0 hGRF (1-29) NH2 and (Muconoyl)0 hGRF (1-29) NH2 to that of(Hexanoyl)0 hGRF (1-29) NH2.
ADMINISTRATION: Two daily subcutaneous injections.
TEST SYSTEM: Landrace x Yorkshire pigs.
ANIMAL DESCRIPTION: Fifty six (56) growing barrows pigs weighing 35 kg at the time of purchase.
DESIGN: Fifty six (56) pigs were randomly distributed into 7 experimental groups (n=8 pigs per group). Each group received two daily S.C. administration of the following treatments (volume: 3 ml, S.C. injection).
Treatments were administered from day 1 to 5. Immediately before the injections, one blood sample were collected from each animal, and additional blood samples were collected on day 6.
Blood samples were allowed to clot, serum was harvested by centrifugation and submitted to IGF-I assays.
Results are shown in FIG. 1 as D-IGF-I, which is defined as the increase in IGF-I levels from day 1 (pretreatment levels) to day 6 (after 5 days of GRFs administrations).

[3] = Experiment 1, 20 μg/kg BID SC × 4 days, mean of 6 to 7
[4] = Experiment 2, 10 μg/kg BID SC × 5 days, mean of 8
[5] = Experiment 2, 20 μg/kg BID SC × 5 days, mean of 8
[6] = Experiment 2, 40 μg/kg BID SC × 5 days, mean of 8
[7] = Experiment 3, 20 μg/kg BID SC × 5 days, mean of 8

(Hexanoyl)0 hGRF (1-29) NH2 (YADAIFTNSYRKVLGQLSARKLLQDIMSR; HELM PEPTIDE1{[CCCCCC(=O)[*:2]].Y.A.D.A.I.F.T.N.S.Y.R.K.V.L.G.Q.L.S.A.R.K.L.L.Q.D.I.M.S.R.[am]}$$$$V2.0; SMILES CCCCCC(=O)N[C@@H](Cc1ccc(O)cc1)C(=O)N[C@@H](C)C(=O)N[C@@H](CC(=O)O)C(=O)N[C@@H](C)C(=O)N[C@H](C(=O)N[C@@H](Cc1ccccc1)C(=O)N[C@H](C(=O)N[C@@H](CC(N)=O)C(=O)N[C@@H](CO)C(=O)N[C@@H](Cc1ccc(O)cc1)C(=O)N[C@@H](CCCNC(=N)N)C(=O)N[C@@H](CCCCN)C(=O)N[C@H](C(=O)N[C@@H](CC(C)C)C(=O)NCC(=O)N[C@@H](CCC(N)=O)C(=O)N[C@@H](CC(C)C)C(=O)N[C@@H](CO)C(=O)N[C@@H](C)C(=O)N[C@@H](CCCNC(=N)N)C(=O)N[C@@H](CCCCN)C(=O)N[C@@H](CC(C)C)C(=O)N[C@@H](CC(C)C)C(=O)N[C@@H](CCC(N)=O)C(=O)N[C@@H](CC(=O)O)C(=O)N[C@H](C(=O)N[C@@H](CCSC)C(=O)N[C@@H](CO)C(=O)N[C@@H](CCCNC(=N)N)C(N)=O)[C@@H](C)CC)C(C)C)[C@@H](C)O)[C@@H](C)CC; UniProt P01286 32-60, looked up, fragment) [[hexanoyl^0] hGRF(1-29)NH2]
serum IGF-I, Day 2 (serum IGF-I [1]; [3]): 281 ng/mL
serum IGF-I, Day 3 (serum IGF-I [1]; [3]): 299 ng/mL
serum IGF-I, Day 4 (serum IGF-I [1]; [3]): 319 ng/mL
serum IGF-I, Day 5 (serum IGF-I [1]; [3]): 342 ng/mL
serum IGF-I, Day 1 (pretreatment) (serum IGF-I [1]; [3]): 248 ng/mL
increase in IGF-I levels (serum IGF-I [1]; Experiment 1, day 4): 29%
increase in IGF-I levels (serum IGF-I [1]; Experiment 1, day 5): 38%
serum IGF-I, Day 2 (serum IGF-I [1]; [4]): 327 ng/mL
serum IGF-I, Day 3 (serum IGF-I [1]; [4]): 337 ng/mL
serum IGF-I, Day 4 (serum IGF-I [1]; [4]): 338 ng/mL
serum IGF-I, Day 5 (serum IGF-I [1]; [4]): 366 ng/mL
serum IGF-I, Day 6 (serum IGF-I [1]; [4]): 350 ng/mL
serum IGF-I, Day 1 (pretreatment) (serum IGF-I [1]; [4]): 303 ng/mL
serum IGF-I, Day 2 (serum IGF-I [1]; [5]): 341 ng/mL
serum IGF-I, Day 3 (serum IGF-I [1]; [5]): 368 ng/mL
serum IGF-I, Day 4 (serum IGF-I [1]; [5]): 362 ng/mL
serum IGF-I, Day 5 (serum IGF-I [1]; [5]): 362 ng/mL
serum IGF-I, Day 6 (serum IGF-I [1]; [5]): 368 ng/mL
serum IGF-I, Day 1 (pretreatment) (serum IGF-I [1]; [5]): 302 ng/mL
serum IGF-I, Day 2 (serum IGF-I [1]; [6]): 275 ng/mL
serum IGF-I, Day 3 (serum IGF-I [1]; [6]): 319 ng/mL
serum IGF-I, Day 4 (serum IGF-I [1]; [6]): 354 ng/mL
serum IGF-I, Day 5 (serum IGF-I [1]; [6]): 350 ng/mL
serum IGF-I, Day 6 (serum IGF-I [1]; [6]): 374 ng/mL
serum IGF-I, Day 1 (pretreatment) (serum IGF-I [1]; [6]): 252 ng/mL
serum IGF-I, Day 2 (serum IGF-I [1]; [7]): 292 ng/mL
serum IGF-I, Day 3 (serum IGF-I [1]; [7]): 292 ng/mL
serum IGF-I, Day 4 (serum IGF-I [1]; [7]): 315 ng/mL
serum IGF-I, Day 5 (serum IGF-I [1]; [7]): 347 ng/mL
serum IGF-I, Day 6 (serum IGF-I [1]; [7]): 356 ng/mL
serum IGF-I, Day 1 (pretreatment) (serum IGF-I [1]; [7]): 272 ng/mL
increase in IGF-I levels (serum IGF-I [1]; Experiment 3, day 5): 28%
increase in IGF-I levels (serum IGF-I [1]; Experiment 3, day 6): 31%
D-IGF-I: increase in IGF-I levels from day 1 (pretreatment) to day 6 (serum IGF-I [2]): significantly increased IGF-I levels
